Laboratory results as given in ChEMBL document CHEMBL5257038, “Active Natural Product Scaffolds against Trypanosomatid Parasites: A Review” (J Nat Prod, 2018).
Positions of bridges follow the written chain, without caps; N, C: chain ends. Non-standard residues stand in square brackets, D forms with d. Residues, ends and D or L forms follow the SMILES beside them. ξ: configuration not given here. ξK = NCCCCC(N)C(=O)O

Tests used:
[1] = test system: Trypanosoma brucei brucei; test: Antitrypanosomal activity against bloodstream form of Trypanosoma brucei brucei assessed as reduction in parasite growth; type: functional, organism-based
[2] = test system: Leishmania donovani; test: Antileishmanial activity against Leishmania donovani promastigotes assessed as parasite growth inhibition; type: functional, organism-based
[3] = test system: Trypanosoma brucei; test: Antitrypanosomal activity against bloodstream form of Trypanosoma brucei assessed as parasite growth inhibition; type: functional, organism-based
[4] = Selectivity index, ratio of IC50 for cytotoxicity against mouse peritoneal macrophage cells to IC50 for antileishmanial activity against Leishmania donovani promastigotes; type: toxicity, cell-based; settings: read-out: Ratio IC50
[5] = Selectivity index, ratio of IC50 for cytotoxicity against mouse peritoneal macrophage cells to IC50 for antitrypanosomal activity against bloodstream form of Trypanosoma brucei; type: toxicity, cell-based; settings: read-out: Ratio IC50
[6] = test system: Trypanosoma brucei rhodesiense; test: Antitrypanosomal activity against bloodstream form of Trypanosoma brucei rhodesiense assessed as parasite growth inhibition; type: functional, organism-based
[7] = Selectivity index, ratio of IC50 for cytotoxicity against rat L6 cells to IC50 for antitrypanosomal activity against bloodstream form of Trypanosoma brucei rhodesiense; type: toxicity, cell-based; settings: read-out: Ratio IC50
[8] = test system: Leishmania donovani; test: Antileishmanial activity against amastigote form of Leishmania donovani assessed as parasite growth inhibition; type: functional, organism-based
[9] = test system: Trypanosoma cruzi; test: Antitrypanosomal activity against intracellular Trypanosoma cruzi amastigote assessed as reduction in parasite growth; type: functional, organism-based
[10] = test system: Leishmania infantum; test: Antileishmanial activity against amastigote stage of Leishmania infantum; type: functional, organism-based
[11] = test system: Leishmania major; test: Antileishmanial activity against Leishmania major promastigotes assessed as parasite growth inhibition; type: functional, organism-based
[12] = test system: Trypanosoma brucei brucei; test: Antitrypanosomal activity against Trypanosoma brucei brucei; type: functional, organism-based
[13] = Selectivity index, ratio of IC50 for cytotoxicity against human T98G cells to IC50 for antitrypanosomal activity against Trypanosoma brucei brucei; type: toxicity, cell-based; settings: read-out: Ratio IC50
[14] = test system: Trypanosoma cruzi; test: Antitrypanosomal activity against epimastigote form of Trypanosoma cruzi assessed as reduction in parasite growth; type: functional, organism-based
[15] = test system: Trypanosoma cruzi; test: Antitrypanosomal activity against trypomastigote form of Trypanosoma cruzi assessed as reduction in parasite growth; type: functional, organism-based
[16] = test system: Leishmania infantum; test: Antileishmanial activity against promastigote stage of Leishmania infantum; type: functional, organism-based
[17] = test system: THP-1; test: Cytotoxicity against human THP-1 cells; type: functional, cell-based
[18] = Selectivity index, ratio of IC50 for cytotoxicity against rat L6 cells to IC50 for antileishmanial activity against amastigote form of Leishmania donovani; type: toxicity, cell-based; settings: read-out: Ratio IC50
[19] = Selectivity index, ratio of IC50 for cytotoxicity against rat L6 cells to IC50 for antitrypanosomal activity against intracellular Trypanosoma cruzi amastigote; type: toxicity, cell-based; settings: read-out: Ratio IC50
[20] = test system: Leishmania donovani; test: Antileishmanial activity against Leishmania donovani promastigotes infected in golden hamster assessed as reduction in parasite load in spleen at 3.5 mg/kg administered twice per week for 4 weeks relative to control; type: functional; design: scale not given: the % may be the effect or the level left
[21] = test system: Leishmania donovani; test: Antileishmanial activity against amastigote form of Leishmania donovani HU3 infected in Balb/c mouse assessed as parasite growth inhibition at 30 mg/kg, ip for 5 days relative to control; type: functional; settings: HU3, 120 h, time 5 day
[22] = test system: Leishmania donovani; test: Antileishmanial activity against Leishmania donovani promastigotes infected in golden hamster assessed as reduction in parasite load in spleen at 14.0 mg/kg administered twice per week for 4 weeks relative to control; type: functional; design: scale not given: the % may be the effect or the level left
[23] = Selectivity index, ratio of CC50 for cytotoxicity against rat L6 cells to IC50 for antitrypanosomal activity against bloodstream form of Trypanosoma brucei rhodesiense; type: toxicity, cell-based; settings: read-out: Ratio CC50/IC50
[24] = test system: Trypanosoma cruzi; test: Antitrypanosomal activity against Trypanosoma cruzi amastigote; type: functional, organism-based
[25] = Selectivity index, ratio of IC50 for cytotoxicity against African green monkey Vero cells to IC50 for antitrypanosomal activity against Trypanosoma cruzi amastigote; type: toxicity, cell-based; settings: read-out: Ratio IC50

Compound: O=c1c(O[C@@H]2O[C@H](CO)[C@@H](O)[C@H](O)[C@H]2O)c(-c2cc(O)c(O)c(O)c2)oc2cc(O)cc(O)c12
- EC50 [1]: 13.1 µM

Compound: Cn1c2c3cc(Br)ccc3nc-2cc2cc(Br)ccc21
- EC50 [2]: 500 nM
- EC50 [3]: 2.9 nM
- selectivity ratio [4]: 18
- selectivity ratio [5]: 2080

Compound: COc1ccc2c(=O)cc(-c3ccccc3)oc2c1OC
- EC50 [6]: 21.6 µM
- selectivity ratio [7]: 5

Compound: C[C@@H]1O[C@@H](Oc2cc(O)c3c(=O)c(O)c(-c4ccc(O)c(O)c4)oc3c2)[C@H](O)[C@H](O)[C@H]1O
- EC50 [1]: 20.1 µM

Compound: C/C=C(\C)C(=O)O[C@@H]1CC([C@@H](O)C2=CC3OC(=O)C4=C3[C@H]2[C@H]2OC(=O)[C@H](C)[C@@H]2[C@H](OC(=O)/C(C)=C/C)C4)=C2C(=O)C=C(C)[C@@H]2[C@H]2OC(=O)[C@H](C)[C@@H]21 (some centres not stated)
- EC50 [6]: 4.5 µM
- EC50 [8]: 10200 nM
- EC50 [9]: 30.3 µM

Compound: C/C=C(\C)C(=O)O[C@@H]1CC(C(=O)O)=C2C(=O)C=C(C)[C@@H]2[C@H]2OC(=O)[C@H](C)[C@@H]21
- EC50 [6]: 20.7 µM

Compound: O=c1c(O)c(-c2cc(O)c(O)c(OS(=O)(=O)O)c2)oc2cc(O)cc(O)c12
- EC50 [1]: 21.4 µM

Compound: C=C1CC[C@H]2C(C)(C)CCC[C@]2(C)[C@H]1CC/C(C)=C/Cn1c[n+](C)c2ncnc(N)c21
- EC50 [1]: 1.8 µM
- EC50 [9]: 9 µM
- EC50 [10]: 3000 nM

Compound: C=C(C)C(=O)O[C@H]1CC2=C[C@@H](C/C(C)=C/[C@H]3OC(=O)C(=C)[C@H]13)OC2=O
- EC50 [6]: 0.07 µM
- EC50 [11]: < 280 nM

Compound: CC/C=C(C)\C=C\CCC[C@]1(OC)C[C@H](C)[C@H](CC(=O)OC)OO1
- EC50 [6]: 0.032 µM
- selectivity ratio [7]: > 350

Compound: Cc1cc(O[C@@H]2O[C@@H](C)[C@H](O)[C@@H](O)[C@H]2O)c2c(c1)cc(O[C@@H]1O[C@@H](C)[C@H](O)[C@@H](O)C1O)c1c(=O)c3c(O)cccc3oc12 (some centres not stated)
- EC50 [1]: 15.5 µM

Compound: CC1=C\C=C\C[C@H](C)NC(=O)/C=C/C=C/C=C/[C@H](C)[C@@H](O)[C@H](O)[C@H](O)C[C@@H](O)\C=C\C=C\C(C)=C\1
- EC50 [12]: 6.1 µM
- selectivity ratio [13]: 11

Compound: CO[C@@]1(CCCC2(O)C=C(C)C(C)O2)C[C@H](C)[C@H](CC(=O)O)OO1 (some centres not stated)
- EC50 [6]: 0.17 µM
- EC50 [1]: 0.049 µM

Compound: CC1=C\C=C\C[C@H](C)NC(=O)/C=C/C=C/C=C/[C@H](C)[C@@H](O)[C@H](O)[C@H](O)C[C@@H](O)/C=C\C=C\C(C)=C\1
- EC50 [12]: 0.8 µM
- selectivity ratio [13]: 83

Compound: CO/N=c1\[n-]cnc2c1n(C/C=C(\C)CCC=C(C)C)c[n+]2C
- EC50 [1]: 0.5 µM
- EC50 [9]: < 0.25 µM
- EC50 [10]: 2000 nM

Compound: CC/C=C(C)/C=C/CCC[C@]1(OC)C[C@H](C)[C@H](CC(=O)O)OO1
- EC50 [6]: 5.7 µM
- selectivity ratio [7]: 3.8

Compound: CC[C@H](C)[C@@H]1NC(=O)CNC(=O)[C@H](CCCNC(=N)N)NC(=O)[C@H](Cc2ccc(O)cc2)NC(=O)[C@@H]2CSSC[C@H](NC1=O)C(=O)N[C@@H](Cc1ccc(O)cc1)C(=O)N[C@@H](CCCNC(=N)N)C(=O)N[C@@H](CCCNC(=N)N)C(=O)N[C@H](C(=O)N[C@@H](CCCNC(=N)N)C(N)=O)CSSC[C@H](NC(=O)[C@H](Cc1c[nH]c3ccccc13)NC(=O)C(N)CCCCN)C(=O)N[C@@H](Cc1ccccc1)C(=O)N[C@@H](CCCNC(=N)N)C(=O)N[C@@H](C(C)C)C(=O)N2 (some centres not stated) (H-[ξK]WCFRVCYRGICYRRCR-NH2; disulfide 3-16, 7-12)
- EC50 [14]: 47.9 µM
- EC50 [15]: 9.3 µM

Compound: O=c1cc(-c2ccccc2)oc2c(O)c(O)ccc12 [7,8-DIHYDROXYFLAVONE]
- EC50 [6]: 0.27 µM
- selectivity ratio [7]: 116

Compound: C[C@@H]1[C@H](O)[C@@H](C)/C=C/C=C/C=C/C=C/C=C/C=C/C=C/[C@H](O[C@@H]2O[C@H](C)[C@@H](O)[C@H](N)[C@@H]2O)C[C@@H]2O[C@](O)(C[C@@H](O)C[C@@H](O)[C@H](O)CC[C@@H](O)C[C@@H](O)CC(=O)O[C@H]1C)C[C@H](O)[C@H]2C(=O)O [AMPHOTERICIN B]
- EC50 [16]: 40 nM
- EC50 [17]: 2 µM

Compound: COc1ccc(-c2oc3cc(OC)c(OC)c(O)c3c(=O)c2OC)cc1OC [ARTEMETIN]
- EC50 [6]: 12.1 µM
- selectivity ratio [7]: 9.8

Compound: O=C(Cn1ccnc1[N+](=O)[O-])NCc1ccccc1 [BENZNIDAZOLE]
- EC50 [14]: 9.3 µM

Compound: COc1cccc2oc3c(Cl)c(O)c([C@H]4CCC[C@@H](C)O4)c(O)c3c(=O)c12 [CHAETOXANTHONE C]
- EC50 [6]: 109 µM
- EC50 [2]: 7900 nM
- EC50 [9]: 3.8 µM

Compound: CCCCCCC1CCCC(C2CCC([C@H]3CC[C@H]([C@H](O)CCCCCCCCCCCCC4=C[C@H](C)OC4=O)O3)O2)O1 (some centres not stated) [CHAMUVARININ]
- EC50 [1]: 1.3 µM

Compound: C[n+]1c2ccccc2cc2[n-]c3ccccc3c21 [CRYPTOLEPINE]
- EC50 [2]: 1600 nM
- EC50 [3]: 300 nM
- selectivity ratio [4]: 0.7
- selectivity ratio [5]: 29.3

Compound: O=c1c(O)c(-c2ccccc2)oc2ccccc12 [FLAVONOL]
- EC50 [6]: 2.2 µM
- EC50 [8]: 3000 nM
- EC50 [9]: 33 µM
- selectivity ratio [18]: 21
- selectivity ratio [7]: 29
- selectivity ratio [19]: 2

Compound: C=C1C(=O)O[C@H]2C[C@@](C)(O)C3=CC[C@](C)(O)[C@@H]3C[C@H]12 [GUAIANOLIDE]
- EC50 [14]: 18.1 µM
- EC50 [9]: 67 µM
- EC50 [15]: 5.7 µM

Compound: COc1cc(-c2oc3cc(O)cc(O)c3c(=O)c2O)ccc1O [ISORHAMNETIN]
- selectivity ratio [18]: 10.7
- selectivity ratio [7]: 4.6

Compound: O=c1cc(-c2ccc(O)c(O)c2)oc2cc(O)cc(O)c12 [LUTEOLIN]
- EC50 [6]: 14.1 µM
- EC50 [8]: 2800 nM
- selectivity ratio [18]: 12
- selectivity ratio [7]: 3
- Activity [20]: 80%

Compound: CC/C=C(C)/C=C/CCC[C@]1(OC)C[C@H](C)[C@H](CC(=O)OC)OO1 [MANADOPEROXIDE B]
- EC50 [6]: 0.0088 µM

Compound: CCCCCCCCCCCCCCCCOP(=O)([O-])OCC[N+](C)(C)C [MILTEFOSINE]
- EC50 [14]: 0.92 µM
- EC50 [17]: 4.67 µM

Compound: CC1CS(=O)(=O)CCN1/N=C/c1ccc([N+](=O)[O-])o1 (configuration not stated) [NIFURTIMOX]
- EC50 [14]: 1.5 µM
- EC50 [2]: 24 nM
- EC50 [8]: 4 nM

Compound: NC[C@@H]1O[C@H](O[C@H]2[C@@H](O)[C@H](O[C@@H]3[C@@H](O)[C@H](N)C[C@H](N)[C@H]3O[C@H]3O[C@H](CO)[C@@H](O)[C@H](O)[C@H]3N)O[C@@H]2CO)[C@H](N)[C@@H](O)[C@@H]1O [PAROMOMYCIN]
- EC50 [6]: 22.7 µM
- EC50 [2]: 5 nM
- EC50 [8]: 7 nM

Compound: N=C(N)c1ccc(OCCCCCOc2ccc(C(=N)N)cc2)cc1 [PENTAMIDINE]
- EC50 [17]: 15.8 µM

Compound: O=c1c(O)c(-c2ccc(O)c(O)c2)oc2cc(O)cc(O)c12 [QUERCETIN]
- EC50 [1]: 25.8 µM
- EC50 [8]: 3300 nM
- inhibition in vivo at 30 mg/kg [21]: 15%
- Activity [22]: 90%

Compound: Nc1nc([C@H]2[C@H](CNC(=O)c3cc(Br)c[nH]3)[C@@H](CNC(=O)c3cc(Br)c[nH]3)[C@@H]2c2c[nH]c(N)n2)c[nH]1 [SCEPTRIN]
- EC50 [6]: 15.7 µM
- EC50 [8]: 83000 nM
- EC50 [9]: 96 µM
- selectivity ratio [23]: > 10

Compound: COc1cc2c(c3oc4cccc(O)c4c(=O)c13)[C@@H]1C=CO[C@@H]1O2 [STERIGMATOCYSTIN]
- EC50 [24]: 130 nM
- selectivity ratio [25]: 0.46

Compound: CC(C)[C@@H]1NC(=O)[C@H](C)OC(=O)[C@@H](C(C)C)NC(=O)[C@@H](C(C)C)OC(=O)[C@H](C(C)C)NC(=O)[C@H](C)OC(=O)[C@@H](C(C)C)NC(=O)[C@@H](C(C)C)OC(=O)[C@H](C(C)C)NC(=O)[C@H](C)OC(=O)[C@@H](C(C)C)NC(=O)[C@@H](C(C)C)OC1=O [VALINOMYCIN]
- EC50 [1]: 0.0032 µM
- EC50 [11]: < 110 nM
